Measured values reported in USRE40086E1, “Method for treating bacterial infection with novel 7-substituted-9-substituted amino 6-demethyl-6-deoxytetracyclines” (Wyeth Holdings Corporation, priority 1991, dated 2008).
Values after ≈ are worked out from the molar mass of the structure shown. “Also recorded” adds a separate entry of the source. Counter-ions that a name gives are not always drawn. Like-named read-outs stand apart in the source and are kept apart here.

Key:
[1] = system: tetracycline sensitive and resistant Gram-positive and Gram-negative bacteria; assay: In vitro antibacterial evaluation, MIC by agar dilution (general, Tables I-V and IA); format: cell-based; conditions: summary of Tables I-V
[2] = system: S. aureus Smith (Sensitive); assay: MIC, agar dilution; format: cell-based; conditions: Staphylococcus aureus
[3] = system: S. aureus UBMS 90-2 (tetM); assay: MIC, agar dilution; format: cell-based; conditions: Staphylococcus aureus, S. aureus UBMS 90-2 (tetM)
[4] = system: S. aureus UBMS 88-4 (Sensitive); assay: MIC, agar dilution; format: cell-based; conditions: S. aureus UBMS 88-4 (Sensitive)
[5] = system: S. aureus UBMS 90-3 (Sensitive); assay: MIC, agar dilution; format: cell-based; conditions: Staphylococcus aureus, S. aureus UBMS 90-3 (Sensitive)
E. coli ATCC 25922 = assay: MIC, agar dilution; format: cell-based; conditions: Escherichia coli, ATCC25922
Proteus spp. indole+ = assay: MIC against clinical isolates (Table V, A and O); format: cell-based
[6] = system: E. coli UBMS 88-2 (Sensitive); assay: MIC, agar dilution; format: cell-based; conditions: Escherichia coli
[7] = system: S. aureus ATCC 29213 (Sensitive); assay: MIC, agar dilution; format: cell-based; conditions: Staphylococcus aureus, ATCC29213
[8] = system: S. aureus IVES 1983 (meth. resistant); assay: MIC, agar dilution; format: cell-based; conditions: Staphylococcus aureus
E. faecalis ATCC 29212 = assay: MIC, agar dilution; format: cell-based; conditions: Enterococcus faecalis, ATCC29212
[9] = system: E. faecalis UBMS 90-7 (tetM); assay: MIC, agar dilution; format: cell-based; conditions: Enterococcus faecalis
Enterococcus faecalis [10] = assay: MIC against clinical isolates (Table V, A and O); format: cell-based
S. aureus UBMS 90-2 = assay: In vivo antibacterial evaluation, acute lethal infection in mice; conditions: Staphylococcus aureus, UBMS902, sc, read-out: ED50, median effective dose protecting 50% of the infected mice; mice infected with S. aureus UBMS 90-2 (tetM), single subcutaneous dosing
From the text: (§1) In Vivo Antibacterial Evaluation (Table VII)

S. aureus UBMS 90-1 = assay: as above; conditions: Staphylococcus aureus, UBMS901, sc, read-out: ED50, median effective dose protecting 50% of the infected mice; mice infected with S. aureus UBMS 90-1 (tetM), single subcutaneous dosing
From the text: as §1

[11] = system: N. gonorrhoeae 6418 (tetM); assay: MIC, agar dilution; format: cell-based; conditions: Neisseria gonorrhoeae
Haemophilus influenzae [12] = assay: MIC against clinical isolates (Table V, A and O); format: cell-based; conditions: (18) tested
Klebsiella pneumoniae = assay: MIC against clinical isolates (Table V, A and O); format: cell-based; conditions: Klebsiella pneumoniae
[13] = system: N. gonorrhoeae IL 611 (Sensitive); assay: MIC, agar dilution; format: cell-based; conditions: Neisseria gonorrhoeae
E. coli UBMS 89-1 (tetM) = assay: MIC, agar dilution; format: cell-based; conditions: Escherichia coli
E. faecalis 12201 = assay: MIC, agar dilution; format: cell-based; conditions: Enterococcus faecalis, 12201
[14] = system: S. haemolyticus AVAH 88-3; assay: MIC, agar dilution; format: cell-based; conditions: Staphylococcus haemolyticus, AVAH883
Escherichia coli = assay: MIC against clinical isolates (Table V, A and O); format: cell-based; conditions: Escherichia coli
[15] = system: S. aureus IVES 2943 (meth. resistant); assay: MIC, agar dilution; format: cell-based; conditions: Staphylococcus aureus
[16] = system: E. coli UBMS 89-2 (Sensitive); assay: MIC, agar dilution; format: cell-based; conditions: Escherichia coli
[17] = system: E. coli cell-free ribosomes, strain MRE 600 (tetM) (Tet M Host); assay: E. coli in vitro cell free protein translation system (Table VI); format: biochemical
[18] = system: E. coli cell-free ribosomes, strain MRE 600 (TC Sensitive Host); assay: as above; format: biochemical
[19] = system: E. faecalis UBMS 90-6 (tetM); assay: MIC, agar dilution; format: cell-based; conditions: Enterococcus faecalis
Neisseria gonorrhoeae = assay: MIC against clinical isolates (Table V, A and O); format: cell-based
[20] = system: S. aureus UBMS 88-7 (tetK); assay: MIC, agar dilution; format: cell-based; conditions: Staphylococcus aureus
[21] = system: S. aureus UBMS 88-5 (tetM); assay: MIC, agar dilution; format: cell-based
Bacteroides spp. = assay: MIC against clinical isolates (Table V, A and O); format: cell-based
[22] = system: S. aureus UBMS 90-1 (tetM); assay: MIC, agar dilution; format: cell-based
E. coli UBMS 90-4 (tetM) = assay: MIC, agar dilution; format: cell-based; conditions: Escherichia coli
E. coli UBMS 88-1 (tetB) = assay: MIC, agar dilution; format: cell-based; conditions: Escherichia coli, E. coli UBMS 88-1 (tetB)
Enterococcus faecium [23] = assay: MIC against clinical isolates (Table V, A and O); format: cell-based
Streptococcus pyogenes = assay: MIC vs recent clinical and agricultural isolates (Table V, KK); format: cell-based; conditions: [10] tested
Moraxella catarrhalis = assay: as above; format: cell-based; conditions: [18] tested
Enterococcus faecium [24] = assay: as above; format: cell-based; conditions: [10] tested
Enterococcus faecalis [25] = assay: as above; format: cell-based; conditions: [10] tested
[26] = system: Bordetella bronchiseptica (Agricultural); assay: as above; format: cell-based; conditions: [10] tested
[27] = system: Pasturella multocida (Agricultural & Clinical); assay: as above; format: cell-based; conditions: [17] tested
Listeria monocytogenes = assay: as above; format: cell-based; conditions: [8] tested
Proteus vulgaris = assay: as above; format: cell-based; conditions: [18] tested
Proteus mirabilis = assay: as above; format: cell-based; conditions: [26] tested
[28] = system: Staphylococcus aureus, methicillin-susceptible; assay: as above; format: cell-based; conditions: [15] tested
Streptococcus agalactiae = assay: as above; format: cell-based; conditions: [10] tested
Citrobacter diversus = assay: as above; format: cell-based; conditions: [10] tested
Clostridium perfringens = format: cell-based; conditions: [16] tested
Haemophilus influenzae [29] = assay: MIC vs recent clinical and agricultural isolates (Table V, KK); format: cell-based; conditions: [15] tested
Xanthomonas maltophilia = assay: as above; format: cell-based; conditions: [10] tested
Citrobacter freundii = assay: as above; format: cell-based; conditions: [10] tested
Pseudomonas aeruginosa = assay: as above; format: cell-based; conditions: [10] tested
[30] = system: Bacertoides fragilis group; assay: as above; format: cell-based; conditions: [10] tested
Enterobacter aerogenes = assay: as above; format: cell-based; conditions: [10] tested
Klebsiella oxytoca = assay: as above; format: cell-based; conditions: [10] tested
Enterobacter cloacae = assay: as above; format: cell-based; conditions: [10] tested
Streptococcus pneumoniae = assay: as above; format: cell-based; conditions: [10] tested

SMILES: CN(C)c1cc(NC=O)c(O)c2c1CC1CC3C(N(C)C)C(O)=C(C(N)=O)C(=O)C3(O)C(O)=C1C2=O (stereo not drawn)
- antibacterial activity in vitro (in words) [1]: good in vitro activity against tetracycline resistant strains containing the tetM resistance determinant; also recorded: superior to that of minocycline against other isolates

SMILES: CN(C)c1cc(NC=O)c(O)c2c1CC1CC3C(N(C)C)C(O)=C(C(N)=O)C(=O)C3(O)C(O)=C1C2=O (stereo not drawn) [Compound A, 7-(Dimethylamino)-9-(formylamino)-6-demethyl-6-deoxytetracycline]
- MIC [2]: ≤ 0.015 µg/mL
- MIC [3]: 0.03 µg/mL (≈ 0.0599 µM)
- MIC [4]: <0.015 µg/mL
- MIC ([4]; Staphylococcus aureus): 0.015 µg/mL (≈ 0.03 µM)
- MIC [5]: ≤ 0.015 µg/mL
- MIC (E. coli ATCC 25922): 0.06 µg/mL (≈ 0.12 µM)
- MIC50 (Proteus spp. indole+): 2 µg/mL (≈ 4 µM)
- MIC90 (Proteus spp. indole+): > 32 µg/mL
- MIC [6]: 0.12 µg/mL (≈ 0.24 µM)
- MIC [7]: ≤ 0.015 µg/mL
- MIC [8]: 8 µg/mL (≈ 16 µM)
- MIC (E. faecalis ATCC 29212): ≤ 0.015 µg/mL
- MIC [9]: 0.5 µg/mL (≈ 0.999 µM)
- MIC50 (Enterococcus faecalis [10]; Enterococcus faecalis): 0.12 µg/mL (≈ 0.24 µM)
- MIC90 (Enterococcus faecalis [10]; Enterococcus faecalis): 1 µg/mL (≈ 2 µM)
- MIC Range (Enterococcus faecalis [10]; Enterococcus faecalis clinical isolates, (14) tested): <0.015 to 2.00 µg/mL
- ED50 (S. aureus UBMS 90-2): 0.49 mg/kg
- ED50 (S. aureus UBMS 90-1): 0.22 mg/kg
- MIC [11]: 1 µg/mL (≈ 2 µM)
- MIC50 (Haemophilus influenzae [12]): 0.06 µg/mL (≈ 0.12 µM)
- MIC90 (Haemophilus influenzae [12]): 0.06 µg/mL (≈ 0.12 µM)
- MIC Range (Haemophilus influenzae [12]): <0.008 to 0.06 µg/mL
- MIC50 (Klebsiella pneumoniae): 0.5 µg/mL (≈ 0.999 µM)
- MIC90 (Klebsiella pneumoniae): 0.5 µg/mL (≈ 0.999 µM)
- MIC [13]: 0.06 µg/mL (≈ 0.12 µM)
- MIC (E. coli UBMS 89-1 (tetM)): 0.12 µg/mL (≈ 0.24 µM)
- MIC (E. faecalis 12201): 0.12 µg/mL (≈ 0.24 µM)
- MIC [14]: 0.03 µg/mL (≈ 0.0599 µM)
- MIC50 (Escherichia coli): 0.25 µg/mL (≈ 0.499 µM)
- MIC90 (Escherichia coli): > 32 µg/mL
- MIC [15]: 4 µg/mL (≈ 7.99 µM)
- MIC [16]: 0.12 µg/mL (≈ 0.24 µM)
- IC50, concentration of antibiotic required to inhibit protein synthesis by 50% compared to a drug-free control [17]: 0.4 µg/mL
- IC50, concentration of antibiotic required to inhibit protein synthesis by 50% compared to a drug-free control [18]: <0.3 µg/mL
- MIC [19]: 0.12 µg/mL (≈ 0.24 µM)
- MIC50 (Neisseria gonorrhoeae; Neisseria gonorrhoeae): 0.03 µg/mL (≈ 0.0599 µM)
- MIC90 (Neisseria gonorrhoeae; Neisseria gonorrhoeae): 1 µg/mL (≈ 2 µM)
- MIC Range (Neisseria gonorrhoeae; Neisseria gonorrhoeae clinical isolates, (9) tested): 0.015 to 1.00 µg/mL
- MIC [20]: 2 µg/mL (≈ 4 µM)
- MIC ([21]; S. aureus UBMS 88-5 (tetM)): 0.03 µg/mL (≈ 0.0599 µM)
- MIC ([21]; Staphylococcus aureus, S. aureus UBMS 88-5 (tetM)): 0.06 µg/mL (≈ 0.12 µM)
- MIC50 (Bacteroides spp.; Bacteroides): 0.25 µg/mL (≈ 0.499 µM)
- MIC90 (Bacteroides spp.; Bacteroides): 2 µg/mL (≈ 4 µM)
- MIC Range (Bacteroides spp.; Bacteroides spp. clinical isolates, (15) tested): >0.15 to 4.00 µg/mL
- MIC ([22]; S. aureus UBMS 90-1 (tetM)): 0.12 µg/mL (≈ 0.24 µM)
- MIC ([22]; Staphylococcus aureus, S. aureus UBMS 90-1 (tetM)): 0.06 µg/mL (≈ 0.12 µM)
- MIC (E. coli UBMS 90-4 (tetM)): 1 µg/mL (≈ 2 µM)
- MIC (E. coli UBMS 88-1 (tetB)): 32 µg/mL (≈ 63.9 µM)
- MIC50 (Enterococcus faecium [23]; Enterococcus faecium): 0.06 µg/mL (≈ 0.12 µM)
- MIC90 (Enterococcus faecium [23]; Enterococcus faecium): 2 µg/mL (≈ 4 µM)
- MIC Range (Enterococcus faecium [23]; Enterococcus faecium clinical isolates, (11) tested): <0.015 to 2.00 µg/mL

SMILES: CN(C)[C@@H]1C(O)=C(C(N)=O)C(=O)[C@@]2(O)C(O)=C3C(=O)c4c(O)cccc4[C@@](C)(O)[C@H]3C[C@@H]12 [TC, Tetracycline hydrochloride]
- MIC (range over isolates) (Streptococcus pyogenes): 0.12 to 16 µg/mL
- MIC (range over isolates) (Moraxella catarrhalis): 0.06 to 0.5 µg/mL
- MIC (range over isolates) (Enterococcus faecium [24]): 0.12 to 64 µg/mL
- MIC ([4]; Staphylococcus aureus, read-out: MIC): 0.12 µg/mL
- MIC (range over isolates) (Enterococcus faecalis [25]): 0.12 to 64 µg/mL
- MIC ([5]; read-out: MIC): 0.12 µg/mL
- MIC [9]: 32 µg/mL
- MIC (range over isolates) [26]: 0.12 to 0.25 µg/mL
- MIC (range over isolates) [27]: 0.06 to 16 µg/mL
- MIC (range over isolates) (Listeria monocytogenes): 0.12 to 0.5 µg/mL
- MIC (range over isolates) (Proteus vulgaris): 0.25 to 64 µg/mL
- MIC [11]: > 32 µg/mL
- MIC (range over isolates) (Proteus mirabilis): 0.5 to 64 µg/mL
- MIC (range over isolates) [28]: 0.12 to 1 µg/mL
- MIC (range over isolates) (Streptococcus agalactiae): 0.25 to 64 µg/mL
- MIC (range over isolates) (Citrobacter diversus): 0.5 to 4 µg/mL
- MIC (range over isolates) (Clostridium perfringens): 0.015 to 16 µg/mL
- IC50, concentration of antibiotic required to inhibit protein synthesis by 50% compared to a drug-free control [17]: 2.0 µg/mL
- IC50, concentration of antibiotic required to inhibit protein synthesis by 50% compared to a drug-free control [18]: 0.6 µg/mL
- MIC [19]: 32 µg/mL
- MIC (range over isolates) (Haemophilus influenzae [29]): 1 to 32 µg/mL
- MIC (range over isolates) (Xanthomonas maltophilia): 8 to 16 µg/mL
- MIC (range over isolates) (Citrobacter freundii): 0.5 to 16 µg/mL
- MIC (range over isolates) (Pseudomonas aeruginosa): 2 to 32 µg/mL
- MIC (range over isolates) [30]: 0.25 to 32 µg/mL
- MIC ([21]; Staphylococcus aureus): 32 µg/mL
- MIC (range over isolates) (Enterobacter aerogenes): 0.5 to 1 µg/mL
- MIC ([22]; Staphylococcus aureus): 32 µg/mL
- MIC (E. coli UBMS 90-4 (tetM)): 64 µg/mL
- MIC (range over isolates) (Klebsiella oxytoca): 0.5 to 1 µg/mL
- MIC (range over isolates) (Enterobacter cloacae): 0.5 to 2 µg/mL
- MIC (range over isolates) (Streptococcus pneumoniae): 0.12 to 2 µg/mL
